What was measured:
[1] = Theoretical water droplet contact angle on the oil surface (Young's wetting equation); assay type: physicochemical; conditions: calculated by Young's wetting equation
Protocol: This can be attributed to the fact that the more soluble oils undergo Ostwald ripening, allowing rapid oil droplet growth. The more hydrophobic an oil the better it is for use in methods described herein as Ostwald ripening cannot occur. A degree of hydrophobicity can be estimated by applying the Young's wetting equation to a theoretical liquid/liquid drop profile. A theoretical water droplet contact angle on the oil surface can be calculated, and if this angle is higher than about 80°, preferably higher than 90° then the oil is sufficiently hydrophobic. For example, for dodecane, the theoretical droplet contact angle is 110°. However, it should be noted that selection of a suitable carrier liquid or oil according to theoretical contact angles is a guide only and that liquids or oils having a theoretical contact angle of about 80° are not necessarily less preferred than those having a higher theoretical contact angle.

[2] = Dispersion in water and its stability after vigorous shaking, de-gassed versus gassed (turbidity, visual); assay type: physicochemical; conditions: for time the dispersion is maintained / stable: de-gassed mixture in water after vigorous shaking, no added dispersants; for quality of dispersion in water (turbidity / visual): de-gassed; for quality of dispersion in water (turbidity / visual) / quality of dispersion in water (visual): after vigorous shaking; for quality of dispersion in water (visual): gassed
Protocol: (§1) The enhancement of oil droplet dispersion in water is most easily monitored using turbidity measurements. This enhancement can be measured by the difference between the new system (degassed) and the gassed blank, following vigorous shaking. […] Turbidity is a measure of how many droplets are dispersed in a given phase and is measured in NTU (nephelometric turbidity units) and in the results presented here is measured by light scattering. To give an understanding of the magnitude of these turbidity values, distilled water has a turbidity of 0.02 NTU, while tap water has a value of 1-2 NTU. Although useful, NTU measurements are of limited value and the results can be inaccurate if the refractive index of the dispersed phase is close to that of the dispersing phase (such as with perfluorocarbons in water) and so in some cases dynamic light scattering (DLS) has been used to obtain the droplet size distribution, as well as the charge on the oil droplets. However, careful interpretation of the DLS results is required for poly-disperse samples. Mono-disperse samples show size distribution by volume graphs (see later) over similar size ranges to the Z-average (diameter) and have a small PDI value (poly-dispersity index). The magnitude of the PDI is a measure of poly-dispersity. For poly-disperse samples the Z-average is the best estimate of average droplet size.
(§2) Mixtures of oil and water were de-gassed by a process of repeated freezing in liquid nitrogen, followed by pumping down to a pressure of 0.01 mbar and then melting in a sealed tube. The dissolved gas produced on each melting cycle was removed on re-freezing. Although this process was carried out five times, typically no further de-gassing on melting was observed after 3-4 cycles. […] (It should be noted that membrane separators and vacuum towers are used to de-gas liquids commercially.)
(§3) Dispersion of oil in water was achieved by vigorous shaking of the mixture for 8 sec in a sealed Pyrex tube. Turbidity was measured using an HF Scientific Micro 100 Turbidimeter. Particle sizes and zeta potentials were measured using a Malvern Zetasizer.

[3] = cited from earlier work; for Surface tension: against air; for Interfacial tension: against water
[4] = Droplet size distribution of oil-in-water dispersions by dynamic light scattering (Malvern Zetasizer); assay type: physicochemical; conditions: 0.2 ml/25 ml water
Protocol: as §1, §2, §3

[5] = Zeta potential of oil droplets (Malvern Zetasizer); assay type: physicochemical; conditions: de-gassed mixture in water
Protocol: as §2, §3

| SMILES | Theoretical contact angle (water droplet on oil surface) [1] | time the dispersion is maintained / stable [2] | quality of dispersion in water (turbidity / visual) [2] | Surface tension [3] | Interfacial tension [3] | other results |
| --- | --- | --- | --- | --- | --- | --- |
| FC(F)(F)C(F)(F)C(F)(F)C(F)(F)C(F)(F)C(F)(F)F [C6F14, perfluorohexane] | 111° ^ | many hours | readily dispersed | 11.91 mN/m | 38 mN/m | time to phase separation after vigorous shaking ([2]; gassed mixture, 0.2 ml/25 ml water): less than a minute |
| FC(F)(F)C(F)(F)C(F)(F)C(F)(F)C(F)(F)C(F)(F)C(F)(F)C(F)(F)F [C8F18, perfluorooctane] | 113° ^ | – | – | 14.00 mN/m | 42 mN/m | – |
| CCCCCCCCCCCC [dodecane, reference compound] | 110 ° | – | – | – | – | – |
| FC(F)(F)C(F)(F)C(F)(F)C(F)(F)C(F)(F)C(F)(F)C(F)(F)F [C7F16, perfluoroheptane] | 112°^ | – | – | 12.85 mN/m | 39.7 mN/m | – |
| CC(C)c1cccc(C(C)C)c1O [Propofol, 2,6-diisopropyl phenol] | – | many hours | complete dispersion of the oil | – | – | effect of added salt on the dispersion ([2]; de-gassed dispersion exposed to high salt levels, above those found in human blood): unaffected by the addition of salt; quality of dispersion in water (visual) [2]: many large, visible droplets of the oil |
| FC(F)(F)C(F)(F)C(F)(F)C(F)(F)C(F)(F)C(F)(F)C(F)(F)C(F)(F)Br [Perflubron, perfluorooctyl bromide] | 113° | many hours | enhanced dispersion due to de-gassing is observed | 18 mN/m | 47 mN/m | average droplet diameter ([4]; de-gassed, 1 hour after vigorous shaking): about 0.6 microns; PDI (poly-dispersity index) ([4]; de-gassed, at one hour): 0.430; Z-average size ([4]; de-gassed, at one hour): 599.6 nm; droplet size of size graph (Diam) ([4]; de-gassed, at one hour): 437.6 nm; PDI (poly-dispersity index) ([4]; gassed, after 1 hour): 0.674; Z-average size ([4]; gassed, at one hour): 1176 nm; zeta potential of droplets [5]: −42 mV |
| COC1=CC(=O)C[C@@H](C)[C@]12Oc1c(Cl)c(OC)cc(OC)c1C2=O [griseofulvin] | – | – | clearly well dispersed | – | – | turbidity after dispersion by vigorous shaking ([2]; 0.05 g dissolved in 10 ml soybean oil, 0.2 ml of this dispersed in 25 ml water): the same as those obtained for soybean oil alone; quality of dispersion in water (visual) [2]: solid clumps and a more transparent solution |

Source: patent US20070213411A1, “Dispersions And Methods Of Preparing Them” (The Australian National University, priority 2003, published 2007)
